From patent US9907760B2 (LIBRAGEN, priority 2010, dated 2018)
Marks after values point to notes of the source that are not given here.

Experiments:
[1] = tested on: normal human fibroblasts; test: Hyaluronic acid production by normal human fibroblasts treated with supernatant of treated keratinocytes (HA-ELISA); type: cell-based; conditions: supernatant on fibroblasts 48 hrs
Procedure: Normal human dermal fibroblasts were cultured to confluence. Cells were treated for 48 hours with supernatants of normal human keratinocytes previously grown in the presence of the test products. The fibroblast supernatants, containing hyaluronic acid, were collected and assayed immediately. Hyaluronic acid was quantified with an ELISA microtiter plate. Protein content was determined for each well of the microtiter plate.
(§1) Primocultures of normal human keratinocytes (NHK) were obtained from cells isolated from skin specimens from plastic surgery.
(§2) NHK were seeded at a density of 130,000 cells/well in specific KSFM culture medium (Gibco®, Invitrogen) in a 24-well plate. The plate was placed in a humid incubator (37° C., 5% CO2) for 24 hours.
Primocultures of normal human fibroblasts (NHF) were obtained from cells isolated from skin specimens from plastic surgery.
NHF were seeded at a density of 90,000 cells/well in E-199 culture medium supplemented with 0.5% FCS (Gibco® Invitrogen) in a 24-well plate. The plate was placed in a humid incubator (37° C., 5% CO2) for 24 hours.
The two cell types—NHK and NHF—were plated 48 hours apart.
The different products at the respective concentrations (diluted in KSFM medium, 600 μl) were contacted with NHK cells for 48 hours. Untreated cells were used as the control condition. Two plates were used to separately test NAG, and NAG+vitamin A propionate, on the one hand, and NAG6P, and NAG6P+vitamin A propionate, on the other hand.
(§3) Each treatment condition was evaluated on three wells of NHK cells.
After 48 hours, a fraction of NHK cell supernatant (300 μl/well) was removed and transferred well for well into NHF cell supernatants (300 μl E-199/well−fresh medium without FCS).
This gave a final volume of 600 μl/well (50:50 ratio of KSFM/E-199 medium) which remained on the NHF cells for 48 hours.
After 48 hours of treatment, the NHF cell supernatant was collected and centrifuged.
Hyaluronic acid was assayed in the cell supernatants as described in example 1.
(§4) The assay was performed in duplicate for each well.
(§5) Optical densities (OD) measured on each sample were plotted on a graph (specific standard curve in the kit). The hyaluronic acid concentration was expressed in ng/ml.
(§6) The amount of hyaluronic acid released by the cells was determined for each well and for each treatment condition, relative to the cell content expressed as μg of protein. Thus, the final result was expressed as ng/ml of hyaluronic acid per μg of protein.
(§7) A mean value was calculated for wells treated with the same concentration of test product. This mean was compared with the mean of the control wells (Student t test−comparison of means−significant difference at 95% if p<0.05* and at 99% if p<0.01**).
(§8) The percent stimulation induced by the test products was determined by comparing the mean values of the control and treatment conditions: % Stimulation=(Treated−Control)/Control

[2] = tested on: normal human fibroblasts; test: Procollagen 1 production by normal human fibroblasts treated with supernatant of treated keratinocytes (EIA); type: cell-based; conditions: supernatant on fibroblasts 48 hrs
Procedure: This experiment was carried out according to the method described in example 3. Fibroblast supernatants, containing procollagen 1, were collected and assayed immediately for procollagen 1 by means of an EIA microtiter plate.
After 48 hours of treatment, NHF cell supernatants were collected and centrifuged.
Procollagen 1 was assayed in the cell supernatants by the method described in the Procollagen Type 1 C-peptide EIA kit (MK101, Takara). This is an EIA assay with spectrophotometric detection at 450 nm (Safire, Tecan).
Duplicate determinations were carried out for two wells whereas the third well was assayed only once.
Optical densities (OD) measured on each sample were plotted on a graph (specific standard curve in the kit). The procollagen 1 concentration was expressed in ng/ml.
As in example 3, the protein content was determined in the cell pellets of the supernatants for which procollagen 1 was assayed.
as §7, with “Thus, the final result was expressed as ng/ml of procollagen 1 per μg of protein. A” for “A”, “means, significant” for “means−significant”
The percent stimulation produced by the test products was determined by comparing the mean values of the control and treatment conditions: % Stimulation=(Treated−Control)/Control

[3] = tested on: normal human keratinocytes; test: Hyaluronic acid production by normal human keratinocytes (HA-ELISA of supernatant); type: cell-based; conditions: 1 μM
Procedure: Normal human keratinocytes were cultured to confluence. Cells were treated with the test products for 48 hours. The supernatants, containing hyaluronic acid, were collected and assayed immediately. Hyaluronic acid was quantified with an ELISA microtiter plate.
as §1, §2
The different products at the respective concentrations (diluted in KSFM medium, 600 μl) were contacted with the cells for 48 hours. Untreated cells were used as the control condition.
as §3
After 24 hours of treatment, an intermediate sample of […] of supernatant was removed from each well and the plate returned to the incubator (37° C., 5% CO2).
After 48 hours of treatment, the remaining supernatant (≈350 μA) was collected and centrifuged.
Cell supernatants were assayed according to the method described in the Hyaluronan Enzyme-Linked Immunosorbent Assay kit (HA-ELISA, Echelon Biosciences Inc.). This is an ELISA assay with spectrophotometric detection at 405 nm (Safire, Tecan).
as §4, §5, §6
A mean value was calculated for wells treated with the same concentration of test product. This mean was compared with the mean of the control wells (Student t test−comparison of means−significant difference at 95% if p<0.05* and at 99% if p<0.01*).
as §8
The vitamin A propionate was dissolved in DMSO.

[4] = tested on: normal human fibroblasts; test: Proliferation of normal human fibroblasts treated with supernatant of treated keratinocytes (Cell Proliferation ELISA, BrdU); type: cell-based; conditions: 1 μM on keratinocytes 48 hrs, supernatant on fibroblasts 48 hrs
Procedure: This experiment evaluated the proliferation of normal human fibroblasts (dermal primocultures) after 48 hours of treatment with supernatant transferred from human keratinocytes.
The “Cell Proliferation ELISA, BrdU” test quantifies cell proliferation by measuring incorporation of bromodeoxyuridine (BrdU) during DNA synthesis followed by luminescence detection.
Cells were placed in the presence of the treatment for a specified time (incubator at 37° C., 5% CO2). The pyrimidine analogue 5-bromo-2′-deoxyuridine (BrdU) was then added and the cells were further incubated (37° C., 5% CO2) for a minimum of 2 hours, during which time BrdU is incorporated in place of thymidine into the DNA of proliferating cells.
The culture medium was removed, then the cells were fixed and the DNA denatured at the same time (antibody accessibility). An anti-BrdU-POD (peroxidase) antibody was added; this antibody binds to BrdU in newly synthesized DNA. The immune complex was then detected by addition of luminol substrate with measurement of luminescence (Genios, Tecan).
NHF were seeded at a density of 5,000 cells/well in E-199 culture medium (Gibco® Invitrogen) in a 96-well Optilux white plate (BD Falcon 353947). The plate was placed in a humid incubator (37° C., 5% CO2) for 24 hours.
The different products at the respective concentrations (diluted in KSFM culture medium, 600 μl) were contacted with NHK cells for 48 hours. Control cells were left untreated. Each treatment conditions was evaluated on three wells of NHK cells.
After 48 hours, a fraction of the NHK cell supernatant was removed. Each sample of supernatant (2 times 100 μl) from a well on the NHK plate (24 wells) was transferred to two wells in the NHF plate already containing 100 μl of E-199 medium per well. […]
Cell proliferation was quantified by the method described in the “Cell Proliferation ELISA, BrdU” kit (Roche Applied Science No. 11669915001). This is an immunological assay with luminescence detection (Genios, Tecan).
The means of the luminescence values (RLU/s) of six wells with the same treatment condition were determined. […] Proliferation of treated cells was expressed as a percentage of the control(untreated cells−100%)(OD treated/OD control×100).

[5] = tested on: patients with osteoarthritis; conditions: three-year trial, 212 patients with osteoarthritis, versus slight worsening in placebo group; cited from earlier work
[6] = 5 mM on keratinocytes 48 hrs, vs Control
[7] = 10 mM on keratinocytes 48 hrs, vs Control
[8] = 1 μM on keratinocytes 48 hrs, NAG6P plate (Table 6)
[9] = 1 μM on keratinocytes 48 hrs, NAG plate (Table 5)
[10] = 1 μM on keratinocytes 48 hrs, NAG6P plate (Table 8)
[11] = 1 μM on keratinocytes 48 hrs, NAG plate (Table 7)

Compound: CC(=O)N[C@H]1C(O)O[C@H](CO)[C@@H](O)[C@@H]1O (stereo partly shown) [NAG, N-acetylglucosamine]
- Hyaluronic acid ([1]; 5 mM on keratinocytes 48 hrs): 4277.6 ± 488 ng/mL
- Hyaluronic acid (ng/ml/μg prot.) ([1]; 5 mM on keratinocytes 48 hrs): 358.9 ± 81.8 ng/ml/μg prot.
- % stimulation of hyaluronic acid synthesis [1, 6]: −17%
- Hyaluronic acid ([1]; 10 mM on keratinocytes 48 hrs): 4056.1 ± 315.5 ng/mL
- Hyaluronic acid (ng/ml/μg prot.) ([1]; 10 mM on keratinocytes 48 hrs): 258.8 ± 8.1 ng/ml/μg prot.
- % stimulation of hyaluronic acid synthesis [1, 7]: −40%**
- Procollagen 1 ([2]; 5 mM on keratinocytes 48 hrs): 685.9 ± 38.6 ng/mL
- Procollagen 1 (ng/ml/μg prot.) ([2]; 5 mM on keratinocytes 48 hrs): 57.3 ± 10.5 ng/ml/μg prot.
- % stimulation (procollagen 1) [2, 6]: −37%*
- Procollagen 1 ([2]; 10 mM on keratinocytes 48 hrs): 700.9 ± 32.7 ng/mL
- Procollagen 1 (ng/ml/μg prot.) ([2]; 10 mM on keratinocytes 48 hrs): 44.9 ± 1.3 ng/ml/μg prot.
- % stimulation (procollagen 1) [2, 7]: −51%**

Compound: CCC(=O)OC/C=C(C)/C=C/C=C(C)/C=C/C1=C(C)CCCC1(C)C [Vit. A propionate, vitamin A propionate]
- % stimulation of hyaluronic acid synthesis ([3]; 24 hrs): 34%*
- Hyaluronic acid ([3]; 24 hrs): 1056 ± 186.5 ng/mL
- % stimulation of hyaluronic acid synthesis ([3]; 24 hrs, listed as vitamin A propionate): 34%
- Hyaluronic acid ([3]; 48 hrs): 1944.8 ± 393.2 ng/mL
- Hyaluronic acid (ng/ml/μg prot.) ([3]; 48 hrs): 137.1 ± 32.2 ng/ml/μg prot.
- % stimulation of hyaluronic acid synthesis ([3]; 48 hrs, vs DMSO control): 105%*
- % stimulation of hyaluronic acid synthesis ([3]; 48 hrs, vs DMSO control, listed as vitamin A propionate): 105%
- RLU [4]: 4640 ± 267 RLU
- % Proliferation ([4]; DMSO control = 100%): 109%**
- Hyaluronic acid [1, 8]: 3358.8 ± 615.3 ng/mL
- Hyaluronic acid (ng/ml/μg prot.) [1, 8]: 389.2 ± 108.3 ng/ml/μg prot.
- % stimulation of hyaluronic acid synthesis ([1]; 1 μM on keratinocytes 48 hrs, NAG6P plate (Table 6), vs DMSO control): 7%
- Hyaluronic acid [1, 9]: 3645.6 ± 667.8 ng/mL
- Hyaluronic acid (ng/ml/μg prot.) [1, 9]: 316.6 ± 68 ng/ml/μg prot.
- % stimulation of hyaluronic acid synthesis ([1]; 1 μM on keratinocytes 48 hrs, NAG plate (Table 5), vs DMSO control): −18%
- Procollagen 1 [2, 10]: 704.4 ± 38.6 ng/mL
- Procollagen 1 (ng/ml/μg prot.) [2, 10]: 81.9 ± 13.0 ng/ml/μg prot.
- % stimulation (procollagen 1) ([2]; 1 μM on keratinocytes 48 hrs, NAG6P plate (Table 8), vs DMSO control): 5%
- Procollagen 1 [2, 11]: 706.1 ± 73.8 ng/mL
- Procollagen 1 (ng/ml/μg prot.) [2, 11]: 64.3 ± 20.1 ng/ml/μg prot.
- % stimulation (procollagen 1) ([2]; 1 μM on keratinocytes 48 hrs, NAG plate (Table 7), vs DMSO control): 15%

Compound: N[C@H]1C(O)O[C@H](CO)[C@@H](O)[C@@H]1O (stereo partly drawn) [glucosamine, D-glucosamine]
- improvement in symptoms [5]: 20-25%
